The structures appear in SMILES notation.

The first assay has as its system Mus musculus. Briefly: Compound was tested for in vivo growth inhibition of pancreatic ductal adenocarcinoma (Panc 03) in mice, expressed as antitumor efficacy; range is 11-25. Type of assay: functional.
Take `Cc1ccc(NCCN(C)C)c2c(=O)c3ccccc3sc12`: the T/C turned out to be 25%. The same measure, in the same setting: the figure for `CCN(CC)CCNc1ccc(CNC(=O)c2ccccc2)c2sc3ccccc3c(=O)c12` is 25%; for `CCN(CC)CCNc1ccc(CO)c2sc3ccccc3c(=O)c12` [HYCANTHONE] it is 25%.

In a further assay the test system is Mus musculus. As to the kind of experiment: The compound was tested for in vivo growth inhibition of pancreatic ductal adenocarcinoma (Panc 03) in mice. The assay is classed as functional.
In turn, `CCN(CC)CCNc1ccc(CNS(=O)(=O)c2ccc(N)cc2)c2sc3ccccc3c(=O)c12` yielded a T/C of 3%.

In turn, `CCN(CC)CCNc1ccc(/C=N/c2ccccc2)c2sc3ccccc3c(=O)c12` displayed a T/C of 2%.

`CCCCCCC(=O)OCc1ccc(NCCN(CC)CC)c2c(=O)c3ccccc3sc12` registered a T/C of 2%.

The subject of another assay is Mus musculus. As to the kind of experiment: Compound was tested for in vivo growth inhibition of pancreatic ductal adenocarcinoma (Panc 03) in mice, expressed as antitumor efficacy; range is 26-42. The assay is classed as functional.
Compound `CCN(CC)CCNc1ccc(CN(C)C)c2sc3ccccc3c(=O)c12` had a T/C of 42%. On to `CCN(CC)CCNc1ccc(COC)c2sc3ccccc3c(=O)c12`, for which the T/C is listed as 26%. Turning to `CCN(CC)CCNc1ccc(COC(=O)C(C)(C)C)c2sc3ccccc3c(=O)c12`, the T/C is on record as 42%.

In another assay the test system is Mus musculus. As to the kind of experiment: Compound was tested for in vivo growth inhibition of pancreatic ductal adenocarcinoma (Panc 03) in mice, expressed as antitumor efficacy; range is 0-10. The assay is classed as functional.
As to `CNCc1ccc(NCCN(C)C)c2c(=O)c3ccccc3sc12`, the T/C is recorded as 10 score (0-10). Consider `CCN(CC)CCNc1ccc(CN(C)S(=O)(=O)CC)c2sc3ccccc3c(=O)c12`, for which the T/C is 0 score (0-10). Regarding `CNCc1ccc(NCCCN(C)C)c2c(=O)c3ccccc3sc12`, the T/C is reported as 10 score (0-10). The same measure, in the same setting: in the case of `CCN(CC)CCNc1ccc(CNS(=O)(=O)c2ccccc2)c2sc3ccccc3c(=O)c12` it was 10 score (0-10); in that of `CCN(CC)CCNc1ccc(CSC)c2sc3ccccc3c(=O)c12`, 10 score (0-10).

Another assay relates to Mus musculus. As to the kind of experiment: Compound was tested for in vivo growth inhibition of pancreatic ductal adenocarcinoma (Panc 03) in mice, expressed as antitumor efficacy. The assay is classed as functional.
Compound `CCN(CC)CCNc1ccc(CN(CC)S(C)(=O)=O)c2sc3ccccc3c(=O)c12` came in with a T/C of 0%. Still for that read-out and setting: in the case of `CN(C)CCNc1ccc(CNS(C)(=O)=O)c2sc3ccccc3c(=O)c12` it was 0%; in that of `CCN(CC)CCNc1ccc(C(N)=O)c2sc3ccccc3c(=O)c12`, 0%; in that of `CCN(CC)CCNc1ccc(CNC(C)=O)c2sc3ccccc3c(=O)c12`, 0%. Same read-out and setting: in the case of `CCN(CC)CCNc1ccc(CN(C)S(C)(=O)=O)c2sc3ccccc3c(=O)c12` it was 0%.

On to `CCN(C=O)Cc1ccc(NCCN(CC)CC)c2c(=O)c3ccccc3sc12`, for which the T/C was 0%. Still for that read-out and setting: the figure for `CCNCc1ccc(NCCN(CC)CC)c2c(=O)c3ccccc3sc12` is 0%; for `CN(C)CCNc1ccc(CN)c2sc3ccccc3c(=O)c12` it is 0%.

Source of the values: ChEMBL document CHEMBL1127670, “Comparative molecular field analysis of the antitumor activity of 9H-thioxanthen-9-one derivatives against pancreatic ductal carcinoma 03” (1994).
